# Laboratory results as given in US11149036B2, “3-(1H-pyrazol-4-yl)pyridine allosteric modulators of the M4 muscarinic acetylcholine receptor” (Merck Sharp & Dohme Corp., priority 2017, dated 2021).
# Target: T1, human M4 muscarinic acetylcholine receptor (Homo sapiens, UniProt P08173)
# T1 construct: expressed in transfected cells; host or cells: CHO-K1
# T1 sequence (P08173 1-479): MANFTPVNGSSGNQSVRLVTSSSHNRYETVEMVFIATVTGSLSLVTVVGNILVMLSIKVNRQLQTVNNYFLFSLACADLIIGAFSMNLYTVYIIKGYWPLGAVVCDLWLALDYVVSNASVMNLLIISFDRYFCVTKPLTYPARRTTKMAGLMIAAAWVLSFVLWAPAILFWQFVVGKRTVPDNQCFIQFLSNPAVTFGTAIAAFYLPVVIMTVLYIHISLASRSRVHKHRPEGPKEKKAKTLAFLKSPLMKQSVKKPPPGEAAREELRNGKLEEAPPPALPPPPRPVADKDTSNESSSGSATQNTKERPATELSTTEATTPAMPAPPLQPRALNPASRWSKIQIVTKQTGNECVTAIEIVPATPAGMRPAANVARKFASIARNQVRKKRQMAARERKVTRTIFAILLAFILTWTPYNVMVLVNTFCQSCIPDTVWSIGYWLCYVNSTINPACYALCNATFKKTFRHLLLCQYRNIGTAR
# Test: human FLIPR-based M4 PAM assay (CHO-K1 cells with human M4 receptor and Gaqi5, calcium dye fluorescence)
# Assay type: cell-based
# Details: inflection point (IP) of dose response curve, acetylcholine added at 20% of maximum response, read-out: M4 FLIPPR Hu IP
# Method: (§1) In a typical experiment the M4 muscarinic acetylcholine receptor modulating activity of the compounds of the present invention was determined in accordance with the following experimental method. CHO-K1 cells stably transfected with human M4 receptor and chimeric G-protein Gaqi5 (Coward P, et al., Analytical Biochemistry, 270:242-248 (1999)) are thawed from liquid N2 storage, resuspended in growth medium, plated in black, clear bottom 384 well plates, and incubated 16-20 hours at 37° C., 5% CO2. On the day of assay, growth medium is removed, the cells are washed 2 times with wash buffer, and cells are incubated in dye loading buffer at 37° C., 5% CO2 for ˜1 hour. Following dye loading the cell plates are placed in a FLIPR Tetra instrument and while monitoring dye fluorescence (excitation 470-495 […]), 10 uL of test substance at increasing concentrations is added, and fluorescence values are recorded for 4 min. Next, 10 uL of acetylcholine is added (final concentration calculated so as to achieve 20% of the maximum acetycholine response), and the fluorescence reading is continued for 3.5 min. In some cases, a third addition of acetylcholine (final concentration calculated to achieve 70% of the maximal acetylcholine response) is performed. The resulting dose response curves are fit to a 4 parameter logistic equation and the final result is determined as the inflection point (IP) of the curve
# as §1, with “CHO-K1” for “In a typical experiment the M4 muscarinic acetylcholine receptor modulating activity of the compounds of the present invention was determined in accordance with the following experimental method. CHO-K1”, “Gaqi5” for “Gaqi5 (Coward P, et al., Analytical Biochemistry, 270:242-248 (1999))”, “performed.” for “performed. The resulting dose response curves are fit to a 4 parameter logistic equation and the final result is determined as the inflection point (IP) of the curve”
row,Structure (SMILES),EC50
1,"Cc1ccc(-c2cnn(CC3CCCC3)c2)c(-c2ccc3cc(F)cnc3c2)n1 [Example 13, 7-(3-(1-(cyclopentylmethyl)-1H-pyrazol-4-yl)-6-methylpyridin-2-yl)-3-fluoroquinoline]",23 nM
2,"Cc1ccc(-c2cnn(CC3(F)CCCC3)c2)c(-c2ccc3cc(C(F)(F)F)cnc3c2)n1 [Example 14, 7-(3-(1-((1-fluorocyclopentyl)methyl)-1H-pyrazol-4-yl)-6-methylpyridin-2-yl)-3-(trifluoromethyl)quinoline]",30 nM
3,"Cc1ccc(-c2cnn(CC3(F)CCCC3)c2)c(-c2ccc3c(c2)ncn3C)n1 [Example 16, 5-(3-(1-((1-fluorocyclopentyl)methyl)-1H-pyrazol-4-yl)-6-methylpyridin-2-yl)-1-methyl-1H-benzo[d]imidazole]",34 nM
4,"Cc1ccc(-c2cnn(CC3(F)CCCC3)c2)c(-c2ccc3c(c2)C(=O)NC3)n1 [Example 17, 6-(3-(1-((1-fluorocyclopentyl)methyl)-1H-pyrazol-4-yl)-6-methylpyridin-2-yl)isoindolin-1-one]",26 nM
5,"Cc1ccc(-c2cnn(CC3(F)CCCC3)c2)c(-c2cnc3c(c2)ncn3C)n1 [Example 18, 6-(3-(1-((1-fluorocyclopentyl)methyl)-1H-pyrazol-4-yl)-6-methylpyridin-2-yl)-3-methyl-3H-imidazo[4,5-b]pyridine]",187 nM
6,"Cc1ccc(-c2cnn(CC3(F)CCCC3)c2)c(-c2ccc3c(c2)C(=O)N(CC2CC2)C3)n1 [Example 19, 2-(cyclopropylmethyl)-6-(3-(1-((1-fluorocyclopentyl)methyl)-1H-pyrazol-4-yl)-6-methylpyridin-2-yl)isoindolin-1-one]",20 nM
7,"Cc1ccc(-c2cnn(CC3(F)CCCC3)c2)c(-c2ccc3c(c2)C(=O)N(C2CC2)C3)n1 [Example 20, 2-cyclopropyl-6-(3-(1-((1-fluorocyclopentyl)methyl)-1H-pyrazol-4-yl)-6-methylpyridin-2-yl)isoindolin-1-one]",24 nM
8,"Cc1ccc(-c2cnn(CC3(F)CCCC3)c2)c(-c2ccc3cc(F)cnc3c2)n1 [Example 21, 3-fluoro-7-(3-(1-((1-fluorocyclopentyl)methyl)-1H-pyrazol-4-yl)-6-methylpyridin-2-yl)quinoline]",16 nM
9,"Cc1ccc(-c2cnn(CC3(F)CCCC3)c2F)c(-c2ccc3cccnc3c2)n1 [Example 22, 7-(3-(5-fluoro-1-((1-fluorocyclopentyl)methyl)-1H-pyrazol-4-yl)-6-methylpyridin-2-yl)quinoline]",15 nM
10,"Cc1ccc(-c2cnn(CC3(F)CCCC3)c2F)c(-c2cnc3c(c2)ncn3C)n1 [Example 23, 6-(3-(5-fluoro-1-((1-fluorocyclopentyl)methyl)-1H-pyrazol-4-yl)-6-methylpyridin-2-yl)-3-methyl-3H-imidazo[4,5-b]pyridine]",121 nM
11,Cc1ccc(-c2cnn(CC3(F)CCCC3)c2F)c(-c2ccc3c(c2)ncn3C)n1 [Example 24],70 nM
12,"COc1cc2ccc(-c3nc(C)ccc3-c3cnn(CC45CCC(CC4)C5)c3)cc2nn1 [Example 25, 7-(3-(1-(bicyclo[2.2.1]heptan-1-ylmethyl)-1H-pyrazol-4-yl)-6-methylpyridin-2-yl)-3-methoxycinnoline]",10 nM
13,"Cc1ccc(-c2cnn(CC34CCC(CC3)C4)c2)c(-c2ccc3cccnc3c2)n1 [Example 26, 7-(3-(1-(bicyclo[2.2.1]heptan-1-ylmethyl)-1H-pyrazol-4-yl)-6-methylpyridin-2-yl)quinoline]",10 nM
14,"Cc1ccc(-c2cnn(CC3CCC(F)(F)C3)c2)c(-c2ccc3cccnc3c2)n1 (stereo not shown) [Example 28, 7-(3-(1-((3,3-difluorocyclopentyl)methyl)-1H-pyrazol-4-yl)-6-methylpyridin-2-yl)quinoline]",40 nM
15,"Cc1ccc(-c2cnn(CC3(C)CCCC3)c2)c(-c2ccc3cc(F)cnc3c2)n1 [Example 32, 3-fluoro-7-(6-methyl-3-(1-((1-methylcyclopentyl)methyl)-1H-pyrazol-4-yl)pyridin-2-yl) quinoline]",11 nM
16,"Cc1ccc(-c2cnn(CC3(C)CCCC3)c2)c(-c2ccc3c(c2)C(=O)OC3)n1 [Example 33, 6-(6-methyl-3-(1-((1-methylcyclopentyl)methyl)-1H-pyrazol-4-yl)pyridin-2-yl) isobenzofuran-1(3H)-one]",35 nM
17,"Cc1ccc(-c2cnn(CC3(C)CCCC3)c2)c(-c2ccc3cn(C)nc3c2)n1 [Example 34, 2-methyl-6-(6-methyl-3-(1-((1-methylcyclopentyl)methyl)-1H-pyrazol-4-yl)pyridin-2-yl)-2H-indazole]",57 nM
18,"Cc1ccc(-c2cnn(CC3(C)CCCC3)c2)c(-c2ccc3ccn(C)c(=O)c3c2)n1 [Example 35, 2-methyl-7-(6-methyl-3-(1-((1-methylcyclopentyl)methyl)-1H-pyrazol-4-yl)pyridin-2-yl)isoquinolin-1(2H)-one]",26 nM
19,"COc1cc2ccc(-c3nc(C)ccc3-c3cnn(C(F)C4CCCC4)c3F)cc2nn1 (stereo not shown) [Example 36, 7-(3-(1-(cyclopentylfluoromethyl)-5-fluoro-1H-pyrazol-4-yl)-6-methylpyridin-2-yl)-3-methoxycinnoline]",38 nM
20,"COc1cc2ccc(-c3nc(C)ccc3-c3cnn(CC4CC5C(C4)C5(F)F)c3)cc2nn1 (stereo not shown) [Example 37, 7-(3-(1-((6,6-difluorobicyclo[3.1.0]hexan-3-yl)methyl)-1H-pyrazol-4-yl)-6-methylpyridin-2-yl)-3-methoxycinnoline]",51 nM
21,"N#Cc1ccc(-c2cnn(CC3CCCC3)c2)c(-c2ccc3ccnn3c2)n1 [Example 38, 5-(1-(cyclopentylmethyl)-1H-pyrazol-4-yl)-6-(pyrazolo[1,5-a]pyridin-6-yl)picolinonitrile]",13 nM
22,"Cn1ccc2ccc(-c3nc(C#N)ccc3-c3cnn(CC4CCCC4)c3)cc2c1=O [Example 39, 5-(1-(cyclopentylmethyl)-1H-pyrazol-4-yl)-6-(2-methyl-1-oxo-1,2-dihydroisoquinolin-7-yl)picolinonitrile]",111 nM
23,"N#Cc1ccc(-c2cnn(CC3(F)CCCC3)c2)c(-c2ccc3c(c2)C(=O)N(C2CC2)C3)n1 [Example 40, 6-(2-cyclopropyl-3-oxoisoindolin-5-yl)-5-(1-((1-fluorocyclopentyl)methyl)-1H-pyrazol-4-yl) picolinonitrile]",13 nM
24,"CN1Cc2ncc(-c3nc(C#N)ccc3-c3cnn(CC4(F)CCCC4)c3)cc2C1=O [Example 41, 5-(1-((1-fluorocyclopentyl)methyl)-1H-pyrazol-4-yl)-6-(6-methyl-5-oxo-6,7-dihydro-5H-pyrrolo[3,4-b]pyridin-3-yl)picolinonitrile]",45 nM
25,"N#Cc1ccc(-c2cnn(CC3(F)CCCC3)c2)c(-c2ccn3cnnc3c2)n1 [Example 42, 6-([1,2,4]triazolo[4,3-a]pyridin-7-yl)-5-(1-((1-fluorocyclopentyl)methyl)-1H-pyrazol-4-yl)picolinonitrile]",32 nM
26,"N#Cc1ccc(-c2cnn(CC3(F)CCCC3)c2)c(-c2ccn3ncnc3c2)n1 [Example 43, 6-([1,2,4]triazolo[1,5-a]pyridin-7-yl)-5-(1-((1-fluorocyclopentyl)methyl)-1H-pyrazol-4-yl)picolinonitrile]",29 nM
27,"Cc1nnc2cc(-c3nc(C#N)ccc3-c3cnn(CC4(F)CCCC4)c3)ccn12 [Example 44, 5-(1-((1-fluorocyclopentyl)methyl)-1H-pyrazol-4-yl)-6-(3-methyl-[1,2,4]triazolo [4,3-a]pyridin-7-yl)picolinonitrile]",18 nM
28,"CN1C(=O)c2cc(-c3nc(C#N)ccc3-c3cnn(CC4(F)CCCC4)c3)ccc2C1(C)C [Example 45, 5-(1-((1-fluorocyclopentyl)methyl)-1H-pyrazol-4-yl)-6-(1,1,2-trimethyl-3-oxoisoindolin-5-yl)picolinonitrile]",64 nM
